Reference: patent US20250235410A1, “WATER-SOLUBLE CANNABIDIOL MICROCAPSULES AND PREPARATION METHOD THEREOF” (Northeast Agricultural University, priority 2022, published 2025)

How the values were obtained:
[1] = Release in simulated gastric juice; format: in vitro ADME; details: 1 h in simulated gastric juice
Experimental: An appropriate amount of samples are weighed and released in simulated gastric juice. Samples are taken according to the time gradient of 0.5, 1.0, 1.5, 2.0, 2.5 and 3.0 h, and the cumulative release rate of CBD is determined.

[2] = ABTS+ radical cation scavenging rate; format: biochemical; details: P<0.05
Experimental: (§1) The antioxidant activity of glycosylation product-based water-soluble cannabidiol microcapsules is analyzed through radical scavenging rate. The scavenging ability of 1,1-Diphenyl-2-picrylhydrazyl (DPPH) and, 2′-azino-bis (3-ethylbenzothiazoline-6-sulfonic acid (ABTS^+) radical cation is mainly studied.
Determination of ABTS^+ radical scavenging rate: 10 mg of ABTS and 2.9 mg of potassium persulfate are taken, dissolved in 10 mL of 0.01 mol/L sodium phosphate buffer, and stored in the dark at 25° C. for 15 h for later use. 2.5 mL ABTS solution is taken, added with 20 mL of 0.01 mol/L sodium phosphate buffer, and diluted with distilled water so that the absorbance at 734 nm is 0.7, to obtain an ABTS analysis solution. 1 mL of CBD with different concentrations and methanol solutions of microcapsules with different concentrations are taken respectively, added with 2 mL of above ABTS analysis solution to the test tube for reacting for 10 min, and then 95% ethanol is used as reference solution to read the absorbance value at 734 nm. The absorbance value of the sample mixed with ABTS analysis solution is marked as A, the absorbance value of the sample mixed with 95% ethanol solution is Ai, and the absorbance value of the single ABTS analysis solution is Aj. The calculation formula is as follows: […]

[3] = Release in simulated intestinal juice; format: in vitro ADME; details: 1 h in simulated intestinal juice
Experimental: An appropriate amount of samples are weighed and released in simulated intestinal juice. Samples are taken according to the time gradient of 0.5, 1.0, 1.5, 2.0, 2.5 and 3.0 h, and the cumulative release rate of CBD is determined.

[4] = Influence of oxygen on stability (retention rate of CBD); format: physicochemical; details: 15th day, dark, aerobic
Experimental: (§2) Determination of retention rate of CBD in MRPs-CBD microcapsules: the above method to determine CBD content in MRPs-CBD microcapsules is used to accurately determine the initial CBD content in MRPs-CBD microcapsules and the CBD content retained in microcapsules under different treatment methods, and the retention rate of CBD in microcapsules is calculated according to the following formula: […]
An appropriate amount of samples are weighed, placed at 4° C. and 25° C. for 15 days in the dark and aerobic conditions, and taken out at on 1st, 3rd, 5th, 7th, 9th, 12th and 15th day to determine the retention rate of CBD. See FIG. 8A and FIG. 8B for the test results.

[5] = Influence of temperature on stability (retention rate of CBD); format: physicochemical; details: 4-100 °C, sealed, dark, 12 h
Experimental: Determination of retention rate of CBD in MRPs-CBD microcapsules: the above method to determine CBD content in MRPs-CBD microcapsules is used to accurately determine the initial CBD content in MRPs-CBD microcapsules and the CBD content retained in microcapsules under different treatment methods, and the retention rate of CBD in microcapsules is calculated according to the following formula:
An appropriate amount of samples are weighed, placed in a sealed and dark environment at 4° C., 25° C., 37° C., 50° C., 80° C. and 100° C. for 12 h and taken out, and the retention rate of CBD is determined.

[6] = Influence of incandescent light on stability (retention rate of CBD); format: physicochemical; details: 15th day of incandescent light (25 W), 4 °C, sealed
Experimental: as §2
A proper amount of samples are weighed, sealed, placed under incandescent light (25 W) at 4° C. for 15 d, and taken out on the 1st, 3rd, 6th, 9th, 12th and 15th day respectively, and the retention rate of CBD is determined.

[7] = DPPH radical scavenging rate; format: biochemical; details: P<0.05
Experimental: as §1
Determination of DPPH radical scavenging rate: 1 mL of CBD with different concentrations, methanol solution of microcapsules with different concentrations and 4 mL of 0.1 mmol/L DPPH solution (DPPH dissolved in 95% ethanol) are mixed evenly, and kept in the dark for 30 min at room temperature. Using 95% ethanol as reference solution, the absorbance at 517 nm is read. The absorbance value of the sample mixed with DPPH ethanol solution is recorded as A, the absorbance value of the sample mixed with 95% ethanol solution is Ai, and the absorbance value of the single DPPH ethanol solution is Aj. The calculation formula is as follows: […]

[8] = Influence of environmental pH value on stability (retention rate of CBD); format: physicochemical; details: 4 °C, 12 h
Experimental: as §2
A proper amount of samples are weighed and dissolved in distilled water, and the pH values of the solutions are adjusted as 1, 2, 3, 4, 5, 6, 7, 8, 9, 10, 11 and 12 respectively, and samples are placed in a sealed and dark environment at 4° C. for 12 h, then taken out and its retention rate of CBD is determined.

C=C(C)[C@@H]1CCC(C)=C[C@H]1c1c(O)cc(CCCCC)cc1O [unencapsulated CBD, Cannabidiol]
fate of CBD in simulated gastric juice [1]: completely digested and degraded
ABTS+ scavenging rate, change with increase of CBD concentration [2]: increase significantly
fate of CBD in simulated intestinal juice [3]: completely digested and degraded
retention rate of CBD ([4]; 4 °C): 43.87±1.83%
retention rate of CBD ([4]; 25 °C): 38.85±1.76%
retention rate of CBD, trend with increase of temperature [5]: continuous downward trends
retention rate of CBD [6]: 24.53±1.56%
DPPH scavenging rate, change with increase of CBD concentration [7]: increase significantly
retention rate of CBD, trend ([8]; environmental pH increases from 1 to 6): increase significantly
retention rate of CBD, trend ([8]; environmental pH increases from 8 to 12): decrease significantly
